Experimental data from patent publication EP0351418B1, “VIRAL VECTOR SYSTEM FOR THE INTRODUCTION OF FOREIGN DNA […] INTO GA[…]” (SYNERGEN, INC., priority 1987, dated 1988).

Test system: HVT
Assay: Growth and plaque formation of HVT in CEF in the presence of AraT
Type: cell-based, herpesvirus of turkeys (HVT)
Excerpt: In HSV-infected cells, ¹²⁵IdC is incorporated into DNA only after it has been phosphorylated by the viral TK as described by Summers and Summers, J. Virol. 24: 314-318 (1977), specifically incorporated herein by reference. Moreover, growth of HVT in CEF is inhibited by the drug AraT, whereas uninfected CEF appears to be unaffected. AraT (1-beta-D-arabinofuranosyl-thymine obtained from Calbiochem) is lethal to cells only once it is incorporated into the DNA where it acts as a chain-terminator. Again by analogy to HSV, AraT-resistance is likely to be due to mutations in the thymidine kinase gene.
AraT-resistant variants occur spontaneously in populations of FC126, and are isolated by growing cell-free virus as described by Calnek et al., Avian Dis. 16:52-56 (1972), specifically incorporated herein by reference, in CEF in the presence of 100 ug/ml AraT. Specifically, 150 mm tissue culture dishes are seeded with 2 X 10⁷ cells of secondary CEF. Two hours later the medium is removed, and 2 X 10⁴ pfu of cell-free HVT are adsorbed for 30 minutes. After adsorption, 30 ml of medium containing 100 ug/ml of AraT is added. Cells are fluid-changed every two days, always with AraT, and monolayers are screened for plaques 4-5 days post-infection at 40-fold magnfication using an inverted microscope. One AraT-resistant variant ATR° was found in 2 X 10⁵ pfu screened initially. Subsequent experiments have yielded AraT resistant HVT at least that frequency. ATR° remains stable for at least nine passages in the absence of AraT.
In addition, wild-type HVT has a growth advantage over the AraT-resistant variants. These differences between the wild-type HVT and HVT that are AraT-resistant, form the basis for a marker-rescue assay that allows for the identification of the region of DNA, and thus the gene which confers resistance to AraT. DNA from the AraT resistant HVT (10 ug of total infected-cell DNA) is co-transfected with individual DNA clones (200 ng of plasmid DNA or 1 ug of phage DNA) representing the genome of HVT. […]

For `Cc1cn([C@@H]2O[C@H](CO)[C@@H](O)[C@@H]2O)c(=O)[nH]c1=O` [AraT, 1-beta-D-arabinofuranosyl-thymine], the “effect on uninfected CEF” value (AraT, uninfected CEF) was “unaffected”, the “growth of HVT in CEF” value (in the presence of AraT) was “inhibited” and the “plaque-forming ability of wild-type HVT” value (in the presence of AraT) was “completely inhibits”.
